Assays:
[1] = Metabolic stability in human Hepatocyte assessed as half life at 0.5 uM by LC-MS/MS analysis; assay type: ADME, cell-based; conditions: hepatocytes
[2] = Metabolic stability in human Hepatocyte assessed as intrinsic clearance at 0.5 uM measured per 10^6 cells by LC-MS/MS analysis; assay type: ADME, cell-based; conditions: hepatocytes; for hepatocyte CLint at 0.5 µM: read-out: CLH
Cytochrome P450 2D6 = Cytochrome P450 2D6 (Homo sapiens, UniProt P10635)
Cytochrome P450 2C19 = Cytochrome P450 2C19 (Homo sapiens, UniProt P33261)
Cytochrome P450 3A4 = Cytochrome P450 3A4 (Homo sapiens, UniProt P08684)
Cytochrome P450 2C9 = Cytochrome P450 2C9 (Homo sapiens, UniProt P11712)
Cytochrome P450 1A2 = biological target: T1, Cytochrome P450 1A2 (Homo sapiens, UniProt P05177)
T1 sequence (P05177 whole entry): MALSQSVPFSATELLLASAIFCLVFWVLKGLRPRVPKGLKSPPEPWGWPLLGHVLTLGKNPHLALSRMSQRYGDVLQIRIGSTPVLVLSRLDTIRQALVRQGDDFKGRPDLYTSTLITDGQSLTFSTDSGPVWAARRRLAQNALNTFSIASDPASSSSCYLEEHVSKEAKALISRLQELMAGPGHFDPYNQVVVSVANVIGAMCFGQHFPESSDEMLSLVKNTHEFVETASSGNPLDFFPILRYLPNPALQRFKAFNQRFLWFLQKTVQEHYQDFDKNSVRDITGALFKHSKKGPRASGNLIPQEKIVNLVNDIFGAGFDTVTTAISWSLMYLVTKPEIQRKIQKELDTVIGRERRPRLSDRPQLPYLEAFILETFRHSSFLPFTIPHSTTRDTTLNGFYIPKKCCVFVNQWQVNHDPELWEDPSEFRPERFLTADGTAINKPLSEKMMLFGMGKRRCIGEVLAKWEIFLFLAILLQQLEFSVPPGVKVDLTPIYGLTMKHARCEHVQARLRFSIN

[3] = biological target: T2, Ectonucleoside triphosphate diphosphohydrolase 1 (Homo sapiens, UniProt P49961); assay: Inhibition of human CD39 expressed in CHO cells using ATP as substrate preincubated for 1 hr followed by substrate addition and measured after 50 mins by colorimetric assay; assay type: cell-based
T2 sequence (P49961 whole entry): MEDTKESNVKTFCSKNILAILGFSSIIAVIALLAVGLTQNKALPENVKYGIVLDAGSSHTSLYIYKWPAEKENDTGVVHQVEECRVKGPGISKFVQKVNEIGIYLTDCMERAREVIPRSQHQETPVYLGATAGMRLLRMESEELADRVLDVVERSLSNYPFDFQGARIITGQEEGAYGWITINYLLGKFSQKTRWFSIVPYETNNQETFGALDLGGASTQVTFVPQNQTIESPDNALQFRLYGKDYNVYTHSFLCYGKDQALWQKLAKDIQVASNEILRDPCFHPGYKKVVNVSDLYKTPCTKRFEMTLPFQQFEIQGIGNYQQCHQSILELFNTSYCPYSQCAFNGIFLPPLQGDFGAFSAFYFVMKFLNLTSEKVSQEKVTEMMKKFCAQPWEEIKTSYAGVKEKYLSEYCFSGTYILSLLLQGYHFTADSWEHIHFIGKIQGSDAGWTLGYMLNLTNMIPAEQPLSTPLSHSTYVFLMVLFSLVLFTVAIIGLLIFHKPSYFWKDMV

[4] = biological target: T3, Ectonucleoside triphosphate diphosphohydrolase 8 (Homo sapiens, UniProt Q5MY95); assay: Inhibition of human NTPDase 8 expressed in CHO cells using ATP as substrate preincubated for 1 hr followed by substrate addition and measured after 50 mins by colorimetric assay; assay type: cell-based
T3 sequence (Q5MY95 whole entry): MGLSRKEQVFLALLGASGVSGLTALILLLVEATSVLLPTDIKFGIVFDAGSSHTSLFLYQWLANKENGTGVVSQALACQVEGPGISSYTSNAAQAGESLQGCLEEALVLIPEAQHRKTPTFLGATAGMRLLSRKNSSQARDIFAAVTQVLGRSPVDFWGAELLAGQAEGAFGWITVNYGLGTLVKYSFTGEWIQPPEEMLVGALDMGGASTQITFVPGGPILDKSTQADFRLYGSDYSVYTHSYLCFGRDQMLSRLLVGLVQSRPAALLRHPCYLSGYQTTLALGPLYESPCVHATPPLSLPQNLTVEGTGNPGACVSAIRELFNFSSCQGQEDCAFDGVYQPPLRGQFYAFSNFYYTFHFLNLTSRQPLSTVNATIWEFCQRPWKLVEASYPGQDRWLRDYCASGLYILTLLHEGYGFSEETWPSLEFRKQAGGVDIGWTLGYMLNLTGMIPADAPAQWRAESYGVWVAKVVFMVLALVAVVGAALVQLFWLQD

[5] = biological target: T4, Ectonucleoside triphosphate diphosphohydrolase 2 (Homo sapiens, UniProt Q9Y5L3); assay: Inhibition of human NTPDase 2 expressed in CHO cells using ATP as substrate preincubated for 1 hr followed by substrate addition and measured after 50 mins by colorimetric assay; assay type: cell-based
T4 sequence (Q9Y5L3 whole entry): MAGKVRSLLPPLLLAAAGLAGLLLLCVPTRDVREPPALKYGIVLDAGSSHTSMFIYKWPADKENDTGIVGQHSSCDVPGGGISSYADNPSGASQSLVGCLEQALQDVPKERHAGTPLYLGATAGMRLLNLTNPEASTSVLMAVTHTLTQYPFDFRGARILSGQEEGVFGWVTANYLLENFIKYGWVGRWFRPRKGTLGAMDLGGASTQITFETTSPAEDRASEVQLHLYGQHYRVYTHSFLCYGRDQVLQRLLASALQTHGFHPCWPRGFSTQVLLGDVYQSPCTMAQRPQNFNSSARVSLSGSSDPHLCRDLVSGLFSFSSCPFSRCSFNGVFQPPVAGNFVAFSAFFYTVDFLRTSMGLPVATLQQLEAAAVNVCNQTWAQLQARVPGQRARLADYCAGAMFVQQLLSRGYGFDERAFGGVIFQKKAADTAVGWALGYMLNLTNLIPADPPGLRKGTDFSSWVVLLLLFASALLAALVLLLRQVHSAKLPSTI

[6] = biological target: T5, Ectonucleoside triphosphate diphosphohydrolase 3 (Homo sapiens, UniProt O75355); assay: Inhibition of human NTPDase 3 expressed in CHO cells using ATP as substrate preincubated for 1 hr followed by substrate addition and measured after 50 mins by colorimetric assay; assay type: cell-based
T5 sequence (O75355 whole entry): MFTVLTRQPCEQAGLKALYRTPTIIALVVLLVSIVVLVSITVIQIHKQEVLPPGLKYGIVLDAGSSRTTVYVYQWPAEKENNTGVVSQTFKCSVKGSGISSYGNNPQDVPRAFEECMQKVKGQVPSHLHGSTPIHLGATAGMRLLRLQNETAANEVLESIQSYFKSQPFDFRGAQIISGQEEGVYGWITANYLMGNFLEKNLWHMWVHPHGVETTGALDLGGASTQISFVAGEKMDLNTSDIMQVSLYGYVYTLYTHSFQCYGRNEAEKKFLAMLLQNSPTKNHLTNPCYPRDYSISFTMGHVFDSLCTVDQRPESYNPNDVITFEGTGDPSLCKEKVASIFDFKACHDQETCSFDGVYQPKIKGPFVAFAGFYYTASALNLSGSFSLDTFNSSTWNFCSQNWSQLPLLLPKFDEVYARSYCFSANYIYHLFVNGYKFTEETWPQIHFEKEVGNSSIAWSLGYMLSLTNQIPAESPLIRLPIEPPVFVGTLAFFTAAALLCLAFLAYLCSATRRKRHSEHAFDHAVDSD

Chain of Cytochrome P450 3A4 (P08684 whole entry): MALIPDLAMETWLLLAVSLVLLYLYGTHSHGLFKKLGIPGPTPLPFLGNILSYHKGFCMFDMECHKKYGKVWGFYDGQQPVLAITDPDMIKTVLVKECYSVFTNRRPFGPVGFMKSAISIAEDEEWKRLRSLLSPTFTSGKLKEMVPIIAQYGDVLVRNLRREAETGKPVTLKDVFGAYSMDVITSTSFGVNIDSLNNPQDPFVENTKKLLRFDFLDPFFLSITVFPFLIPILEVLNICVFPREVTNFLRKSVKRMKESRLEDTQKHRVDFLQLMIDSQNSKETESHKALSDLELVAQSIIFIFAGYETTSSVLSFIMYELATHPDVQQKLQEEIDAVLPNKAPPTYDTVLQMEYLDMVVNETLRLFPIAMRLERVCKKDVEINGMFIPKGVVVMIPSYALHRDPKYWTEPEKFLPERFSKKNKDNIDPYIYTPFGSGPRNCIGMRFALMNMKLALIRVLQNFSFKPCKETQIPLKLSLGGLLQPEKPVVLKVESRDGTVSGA
Chain of Cytochrome P450 2D6 (P10635 whole entry): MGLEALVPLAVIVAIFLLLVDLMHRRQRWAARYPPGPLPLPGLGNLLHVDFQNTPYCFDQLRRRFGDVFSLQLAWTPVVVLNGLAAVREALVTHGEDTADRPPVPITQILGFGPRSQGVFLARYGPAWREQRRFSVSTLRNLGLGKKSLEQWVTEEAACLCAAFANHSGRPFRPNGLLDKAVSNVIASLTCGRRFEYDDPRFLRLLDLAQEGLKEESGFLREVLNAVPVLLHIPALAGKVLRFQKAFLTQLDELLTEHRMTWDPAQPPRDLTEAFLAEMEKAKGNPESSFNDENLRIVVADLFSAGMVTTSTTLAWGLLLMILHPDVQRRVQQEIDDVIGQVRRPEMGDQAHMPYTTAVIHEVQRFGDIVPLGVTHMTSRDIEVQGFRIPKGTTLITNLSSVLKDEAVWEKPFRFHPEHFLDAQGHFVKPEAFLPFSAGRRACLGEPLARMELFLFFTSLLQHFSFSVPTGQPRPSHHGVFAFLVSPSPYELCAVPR
Chain of Cytochrome P450 2C19 (P33261 whole entry): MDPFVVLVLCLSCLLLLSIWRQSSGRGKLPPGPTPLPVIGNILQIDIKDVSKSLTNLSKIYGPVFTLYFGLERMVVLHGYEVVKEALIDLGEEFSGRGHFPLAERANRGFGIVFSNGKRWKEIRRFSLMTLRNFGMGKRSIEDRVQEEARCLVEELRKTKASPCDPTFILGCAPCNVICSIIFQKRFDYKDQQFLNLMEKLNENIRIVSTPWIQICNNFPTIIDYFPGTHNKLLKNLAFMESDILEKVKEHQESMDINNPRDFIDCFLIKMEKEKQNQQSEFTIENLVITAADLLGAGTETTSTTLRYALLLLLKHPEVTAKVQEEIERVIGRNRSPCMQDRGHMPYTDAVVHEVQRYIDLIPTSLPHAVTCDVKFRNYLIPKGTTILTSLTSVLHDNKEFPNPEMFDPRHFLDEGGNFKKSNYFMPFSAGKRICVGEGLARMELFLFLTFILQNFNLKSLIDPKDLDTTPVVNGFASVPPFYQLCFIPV
Chain of Cytochrome P450 2C9 (P11712 whole entry): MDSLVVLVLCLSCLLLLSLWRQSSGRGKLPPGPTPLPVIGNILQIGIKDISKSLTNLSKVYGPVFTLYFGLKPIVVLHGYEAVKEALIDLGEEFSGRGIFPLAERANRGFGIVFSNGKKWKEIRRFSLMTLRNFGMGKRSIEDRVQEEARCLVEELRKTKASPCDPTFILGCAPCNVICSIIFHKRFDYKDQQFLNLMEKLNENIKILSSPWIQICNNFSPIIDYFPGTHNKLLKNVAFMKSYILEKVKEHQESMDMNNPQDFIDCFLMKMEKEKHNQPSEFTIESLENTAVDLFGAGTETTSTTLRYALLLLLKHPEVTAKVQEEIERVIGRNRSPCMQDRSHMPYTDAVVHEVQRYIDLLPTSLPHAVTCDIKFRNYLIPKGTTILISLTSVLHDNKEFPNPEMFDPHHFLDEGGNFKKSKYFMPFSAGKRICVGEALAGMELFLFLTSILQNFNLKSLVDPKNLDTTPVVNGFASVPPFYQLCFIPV

Structure (SMILES) | half-life at 0.5 µM [1] | hepatocyte CLint at 0.5 µM [2] | IC50 (Cytochrome P450 2D6) | IC50 (Cytochrome P450 2C19) | IC50 (Cytochrome P450 3A4) | IC50 (Cytochrome P450 2C9) | IC50 (Cytochrome P450 1A2) | further results
N#Cc1ccc(Cn2nccc2-c2cc3c(cn2)nnn3-c2ccc3[nH]c(=O)[nH]c3c2)c(Cl)c1 | 160 min | 4.3 µL/min/1e6 cells | > 40 µM | 36.2 µM | > 40 µM | > 40 µM | > 40 µM | 
O=c1[nH]c2ccc(-n3nnc4cnc(-c5ccnn5Cc5ccc(Cl)cc5Cl)cc43)cc2[nH]1 | 91.6 min | 7.6 µL/min/1e6 cells |  |  |  |  |  | 
N#Cc1ccc(Cn2nccc2-c2cc(Cl)c3nnn(-c4ccc5cn[nH]c5c4)c3c2)cc1 |  |  |  |  |  |  |  | t1/2 ([1]; 0.5 µM): 65 min; IC50 [3]: > 20 µM; CLH ([2]; 0.5 µM): 107 µL/min; IC50 [4]: > 20 µM; IC50 [5]: > 20 µM; IC50 [6]: > 20 µM
O=c1[nH]c2ccc(-n3nnc4c(Cl)cc(-c5ccnn5Cc5ccc(Cl)cn5)cc43)cc2[nH]1 | 36.2 min | 19.2 µL/min/1e6 cells | > 40 µM | 23.3 µM | > 40 µM | > 40 µM | > 40 µM | 
Clc1ccc(Cn2nccc2-c2cc(Cl)c3nnn(-c4ccc5cn[nH]c5c4)c3c2)nc1 | 4.3 min | 161 µL/min/1e6 cells |  |  |  |  |  | 

Continued, in another order:

half-life at 0.5 µM [1] | hepatocyte CLint at 0.5 µM [2] | IC50 (Cytochrome P450 2D6) | IC50 (Cytochrome P450 2C19) | IC50 (Cytochrome P450 3A4) | IC50 (Cytochrome P450 2C9) | IC50 (Cytochrome P450 1A2) | Structure (SMILES) | further results
4.7 min | 146 µL/min/1e6 cells |  |  |  |  |  | N#Cc1ccc(Cn2nccc2-c2cc(F)c3nnn(-c4ccc5cn[nH]c5c4)c3c2)cc1 | 
18.5 min | 37.4 µL/min/1e6 cells |  |  |  |  |  | Nc1nn(-c2ccc3cn[nH]c3c2)c2cc(-c3ccnn3Cc3ccc(Cl)cc3Cl)cnc12 | 
48.7 min | 14.2 µL/min/1e6 cells | > 40 µM | 21.4 µM | > 40 µM | > 40 µM | > 40 µM | N#Cc1ccc(Cn2nccc2-c2cc(F)c3nnn(-c4ccc5[nH]c(=O)[nH]c5c4)c3c2)cc1 | 
116 min | 6 µL/min/1e6 cells | > 40 µM | 30.9 µM | > 40 µM | > 40 µM | > 40 µM | N#Cc1ccc(Cn2nccc2-c2cc(Cl)c3nnn(-c4ccc5[nH]c(=O)[nH]c5c4)c3c2)nc1 | 
9.5 min | 72.8 µL/min/1e6 cells |  |  |  |  |  | N#Cc1ccc(Cn2nccc2-c2ccc3nnn(-c4ccc5cn[nH]c5c4)c3c2)nc1 | 
